The values below come from patent US12559529B2, “NPY2 receptor agonists” (Boehringer Ingelheim International GmbH, priority 2019, dated 2026).

*1 amine or outer side, *2 acyl side, *3 side chain or, on linkers, in order; H or OH if unused. Where a SMILES comes first, the peptide text is derived from it. Side-chain parts run from the residue outwards. The star is where a group is joined. C18 diacid = O=C(O)CCCCCCCCCCCCCCCCC(=O)*; γGlu = O=C(O)[C@H](CCC(=O)[*:2])N[*:1]; Isovaleryl = CC(C)CC(=O)*; AEEA = NCCOCCOCC(=O)O

The target in the assay is T1, Human Neuropeptide Y2 Receptor (Homo sapiens, UniProt P49146).
T1 construct: purchased CHEMICON HTS066M
T1 sequence (P49146 1-381): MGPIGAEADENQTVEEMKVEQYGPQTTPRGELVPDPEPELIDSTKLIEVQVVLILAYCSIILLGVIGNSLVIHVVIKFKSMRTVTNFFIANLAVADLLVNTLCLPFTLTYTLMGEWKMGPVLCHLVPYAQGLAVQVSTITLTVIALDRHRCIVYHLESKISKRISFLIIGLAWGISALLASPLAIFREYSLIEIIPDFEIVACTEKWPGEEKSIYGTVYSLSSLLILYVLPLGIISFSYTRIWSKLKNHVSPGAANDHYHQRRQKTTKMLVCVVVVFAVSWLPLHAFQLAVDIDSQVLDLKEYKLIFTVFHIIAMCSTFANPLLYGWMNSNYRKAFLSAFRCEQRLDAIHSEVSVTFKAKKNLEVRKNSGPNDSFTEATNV
Kind of assay: Radioligand binding competition assay (RLB). The conditions noted are these: Table 3; human 125I-PYY (1-36) 0.02 nM, Y2 receptor membranes; read-out: Ki. The procedure, abridged: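 Membranes (0.5 μg/well) and test peptides, serially diluted from 1 mM DMSO stocks, were incubated 2 hours at room temperature in HEPES buffer pH 7.4 with Mg, Ca and ovalbumin.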
As usually defined, the Ki is a measure of affinity in units of concentration, obtained from inhibition or displacement. On to `CC(C)CC(=O)N[C@@H](C)C(=O)N1CCC[C@H]1C(=O)N[C@@H](CCC(=O)O)C(=O)N[C@@H](CCCCNC(=O)COCCOCCNC(=O)COCCOCCNC(=O)CC[C@H](NC(=O)CCCCCCCCCCCCCCCCC(=O)O)C(=O)O)C(=O)N1CCC[C@H]1C(=O)N[C@@H](CCC(=O)O)C(=O)N[C@@H](CCC(=O)O)C(=O)N[C@@H](C)C(=O)N[C@@H](C)C(=O)N[C@@H](CO)C(=O)N1CCC[C@H]1C(=O)N[C@@H](CCC(=O)O)C(=O)N[C@@H](CCC(=O)O)C(=O)N[C@@H](CC(C)C)C(=O)N[C@@H](CCC(N)=O)C(=O)N[C@@H](CCCNC(=N)N)C(=O)N[C@@H](Cc1ccc(O)cc1)C(=O)N[C@@H](CCC(=O)O)C(=O)N[C@H](C(=O)N[C@@H](CO)C(=O)N[C@@H](CC(C)C)C(=O)N[C@@H](CCCNC(=N)N)C(=O)N[C@@H](Cc1c[nH]cn1)C(=O)N[C@@H](Cc1ccc(O)cc1)C(=O)N[C@@H](Cc1ccc(O)cc1)C(=O)N[C@@H](CC(N)=O)C(=O)N[C@@H](Cc1c[nH]c2ccccc12)C(=O)N[C@@H](CC(C)C)C(=O)N[C@H](C(=O)N[C@@H](CCCNC(=N)N)C(=O)N[C@@H](CCC(N)=O)C(=O)N[C@@H](CCCNC(=N)N)C(=O)N[C@@H](Cc1ccc(O)cc1)C(N)=O)[C@@H](C)O)C(C)C` [Compound 70, N{alpha-4}-(3-methylbutanoyl)-N{epsilon-7}-[2-(2-{2-[2-(2-{2-[(4S)-4-carboxy-4-(17-carboxyheptadecanamido)butanamido]ethoxy}ethoxy)acetamido]ethoxy}ethoxy)acetamido]-[4A,7K,9E,11A,18Q,21E,22V,28Y,30W,31L]hPYY (4-36)] (Isovaleryl-APEK([AEEA-AEEA-γGlu-C18 diacid])PEEAASPEELQRYEVSLRHYYNWLTRQRY-NH2), for which the inhibition constant Ki came to 4.86 nM.

Take `CC(C)CC(=O)N[C@@H](C)C(=O)N1CCC[C@H]1C(=O)N[C@@H](CCC(=O)O)C(=O)N[C@@H](CCCCNC(=O)COCCOCCNC(=O)COCCOCCNC(=O)CC[C@H](NC(=O)CCCCCCCCCCCCCCCCC(=O)O)C(=O)O)C(=O)N1CCC[C@H]1C(=O)N[C@@H](CCC(=O)O)C(=O)N[C@@H](CCC(=O)O)C(=O)N[C@@H](CCC(=O)O)C(=O)N[C@@H](C)C(=O)N[C@@H](CO)C(=O)N1CCC[C@H]1C(=O)N[C@@H](CO)C(=O)N[C@@H](CCC(=O)O)C(=O)N[C@@H](CC(C)C)C(=O)N[C@@H](CCC(N)=O)C(=O)N[C@@H](CCCNC(=N)N)C(=O)N[C@@H](Cc1ccc(O)cc1)C(=O)N[C@@H](Cc1ccc(O)cc1)C(=O)N[C@H](C(=O)N[C@@H](CO)C(=O)N[C@@H](CC(C)C)C(=O)N[C@@H](CCCNC(=N)N)C(=O)N[C@@H](Cc1c[nH]cn1)C(=O)N[C@@H](Cc1ccc(O)cc1)C(=O)N[C@@H](Cc1ccc(O)cc1)C(=O)N[C@@H](CC(N)=O)C(=O)N[C@@H](Cc1c[nH]c2ccccc12)C(=O)N[C@@H](CC(C)C)C(=O)N[C@H](C(=O)N[C@@H](CCCNC(=N)N)C(=O)N[C@@H](CCC(N)=O)C(=O)N[C@@H](CCCNC(=N)N)C(=O)N[C@@H](Cc1ccc(O)cc1)C(N)=O)[C@@H](C)O)C(C)C` [Compound 71, N{alpha-4}-(3-methylbutanoyl)-N{epsilon-7}-[2-(2-{2-[2-(2-{2-[(4S)-4-carboxy-4-(17-carboxyheptadecanamido)butanamido]ethoxy}ethoxy)acetamido]ethoxy}ethoxy)acetamido]-[4A,7K,9E,11E,15S,18Q,22V,28Y,30W,31L]hPYY (4-36)] (Isovaleryl-APEK([AEEA-AEEA-γGlu-C18 diacid])PEEEASPSELQRYYVSLRHYYNWLTRQRY-NH2): the inhibition constant Ki is 5.22 nM.

With `CC(C)CC(=O)N[C@@H](C)C(=O)N1CCC[C@H]1C(=O)N[C@@H](CCC(=O)O)C(=O)N[C@@H](CCCCNC(=O)COCCOCCNC(=O)COCCOCCNC(=O)CC[C@H](NC(=O)CCCCCCCCCCCCCCCCC(=O)O)C(=O)O)C(=O)N1CCC[C@H]1C(=O)N[C@@H](CCC(=O)O)C(=O)N[C@@H](CCC(=O)O)C(=O)N[C@@H](CC(=O)O)C(=O)N[C@@H](C)C(=O)N[C@@H](CO)C(=O)N[C@@H](CCC(=O)O)C(=O)N[C@@H](CCC(=O)O)C(=O)N[C@@H](CCC(=O)O)C(=O)N[C@@H](CC(C)C)C(=O)N[C@@H](CCC(N)=O)C(=O)N[C@@H](CCCNC(=N)N)C(=O)N[C@@H](Cc1ccc(O)cc1)C(=O)N[C@@H](Cc1ccc(O)cc1)C(=O)N[C@H](C(=O)N[C@@H](CCC(=O)O)C(=O)N[C@@H](CC(C)C)C(=O)N[C@@H](CCCNC(=N)N)C(=O)N[C@@H](Cc1c[nH]cn1)C(=O)N[C@@H](Cc1ccc(O)cc1)C(=O)N[C@@H](Cc1ccc(O)cc1)C(=O)N[C@@H](CC(N)=O)C(=O)N[C@@H](Cc1c[nH]c2ccccc12)C(=O)N[C@@H](CC(C)C)C(=O)N[C@H](C(=O)N[C@@H](CCCNC(=N)N)C(=O)N[C@@H](CCC(N)=O)C(=O)N[C@@H](CCCNC(=N)N)C(=O)N[C@@H](Cc1ccc(O)cc1)C(N)=O)[C@@H](C)O)C(C)C` [Compound 77, N{alpha-4}-(3-methylbutanoyl)-N{epsilon-7}-[2-(2-{2-[2-(2-{2-[(4S)-4-carboxy-4-(17-carboxyheptadecanamido)butanamido]ethoxy}ethoxy)acetamido]ethoxy}ethoxy)acetamido]-[4A,7K,9E,14E,18Q,22V,23E,28Y,30W,31L]hPYY (4-36)], the Ki amounted to 6.17 nM.

Regarding `CC(C)CC(=O)N[C@@H](C)C(=O)N1CCC[C@H]1C(=O)N[C@@H](CCC(=O)O)C(=O)N[C@@H](CCCCNC(=O)COCCOCCNC(=O)COCCOCCNC(=O)CC[C@H](NC(=O)CCCCCCCCCCCCCCCCC(=O)O)C(=O)O)C(=O)N1CCC[C@H]1C(=O)N[C@@H](CCC(=O)O)C(=O)N[C@@H](CCC(=O)O)C(=O)N[C@@H](CCC(=O)O)C(=O)N[C@@H](C)C(=O)N[C@@H](CO)C(=O)N1CCC[C@H]1C(=O)N[C@@H](CCC(=O)O)C(=O)N[C@@H](CCC(=O)O)C(=O)N[C@H](C(=O)N[C@@H](CCC(N)=O)C(=O)N[C@@H](CCCNC(=N)N)C(=O)N[C@@H](Cc1ccc(O)cc1)C(=O)N[C@@H](Cc1ccc(O)cc1)C(=O)N[C@H](C(=O)N[C@@H](CO)C(=O)N[C@@H](CC(C)C)C(=O)N[C@@H](CCCNC(=N)N)C(=O)N[C@@H](Cc1c[nH]cn1)C(=O)N[C@@H](Cc1ccc(O)cc1)C(=O)N[C@@H](Cc1ccc(O)cc1)C(=O)N[C@@H](CC(N)=O)C(=O)N[C@@H](Cc1c[nH]c2ccccc12)C(=O)N[C@@H](CC(C)C)C(=O)N[C@H](C(=O)N[C@@H](CCCNC(=N)N)C(=O)N[C@@H](CCC(N)=O)C(=O)N[C@@H](CCCNC(=N)N)C(=O)N[C@@H](Cc1ccc(O)cc1)C(N)=O)[C@@H](C)O)C(C)C)[C@@H](C)O` [Compound 80, N{alpha-4}-(3-methylbutanoyl)-N{epsilon-7}-[2-(2-{2-[2-(2-{2-[(4S)-4-carboxy-4-(17-carboxyheptadecanamido)butanamido]ethoxy}ethoxy)acetamido]ethoxy}ethoxy)acetamido]-[4A,7K,9E,11E,17T,18Q,22V,28Y,30W,31L]hPYY (4-36)], the Ki turned out to be 6.96 nM. As to `CC(C)CC(=O)N[C@@H](C)C(=O)N1CCC[C@H]1C(=O)N[C@@H](CCC(=O)O)C(=O)N[C@@H](CCCCNC(=O)COCCOCCNC(=O)COCCOCCNC(=O)CC[C@H](NC(=O)CCCCCCCCCCCCCCCCC(=O)O)C(=O)O)C(=O)N1CCC[C@H]1C(=O)N[C@@H](CCC(=O)O)C(=O)N[C@@H](CCC(=O)O)C(=O)N[C@@H](CC(=O)O)C(=O)N[C@@H](C)C(=O)N[C@@H](CO)C(=O)N1CCC[C@H]1C(=O)N[C@@H](CCC(=O)O)C(=O)N[C@@H](CCC(=O)O)C(=O)N[C@@H](CC(C)C)C(=O)N[C@@H](CCC(N)=O)C(=O)N[C@@H](CCCNC(=N)N)C(=O)N[C@@H](Cc1ccc(O)cc1)C(=O)N[C@@H](C)C(=O)N[C@H](C(=O)N[C@@H](CO)C(=O)N[C@@H](CC(C)C)C(=O)N[C@@H](CCCNC(=N)N)C(=O)N[C@@H](Cc1c[nH]cn1)C(=O)N[C@@H](Cc1ccc(O)cc1)C(=O)N[C@@H](Cc1ccc(O)cc1)C(=O)N[C@@H](CC(N)=O)C(=O)N[C@@H](Cc1c[nH]c2ccccc12)C(=O)N[C@@H](CC(C)C)C(=O)N[C@H](C(=O)N[C@@H](CCCNC(=N)N)C(=O)N[C@@H](CCC(N)=O)C(=O)N[C@@H](CCCNC(=N)N)C(=O)N[C@@H](Cc1ccc(O)cc1)C(N)=O)[C@@H](C)O)C(C)C` [Compound 85, N{alpha-4}-(3-methylbutanoyl)-N{epsilon-7}-[2-(2-{2-[2-(2-{2-[(4S)-4-carboxy-4-(17-carboxyheptadecanamido)butanamido]ethoxy}ethoxy)acetamido]ethoxy}ethoxy)acetamido]-[4A,7K,9E,18Q,21A,22V,28Y,30W,31L]hPYY (4-36)], the Ki was found to be 1.56 nM.
